Reference: patent publication US20070077583A1, “Alpha enolase-directed diagnostics and therapeutics for cancer and chemotherapeutic drug resistance” (Aurelium BioPharma, Inc., priority 2005, published 2007)
“Also recorded” adds a separate entry of the source. Where two headings read alike, the source gives them in different places.

Experiments:
MCF-7 cells = experiment: MTT cytotoxicity assay, MCF-7 cells transfected with α-enolase siRNA; type: cell-based, human
Procedure: For a typical siRNA transfection, 1 nmole of the annealed siRNA duplex was mixed with 1.4 ml of Opti-MEM reagent (Invitrogen). In another tube, […] of Oligofectamine reagent (Invitrogen, Carlsbad, Calif.) is mixed with […] of Opti-MEM. The two solutions are combined and mixed gently by inversion and incubated for 20 min. at RT. The resulting solution is added to the cultured cells drop by drop in a 10 cm dish (cells are approximately 40-50% confluent). The next day the transfected cells were trypsinized and seeded in 6 or 96-well plates and further incubated for the indicated amount of time (assay dependent) before further analysis.
To evaluate the effect of α-enolase depletion on the chemosensitivity of cells to cytotoxic agents, MTT assays were performed in breast adenocarcinoma MCF-7 cells transfected with α-enolase specific siRNAs. […] The predicted EC50 values (the effective dose of a compound responsible for a positive effect half-way between baseline and maximum net impact) for the α-enolase-depleted cells are shown in Table 3. Similarly, results using other chemotherapeutic drugs are also shown in the table indicating the sensitivity of breast cancer tissue to α-enolase depletion.

H460 cells = experiment: MTT cytotoxicity assay, H460 cells transfected with α-enolase siRNA; type: cell-based, human
Procedure: To establish the effectiveness of α-enolase silencing on other cancer cell types, H460 non-small cell lung cancer cells were challenged with a chemotherapeutic drug, MTT cytotoxicity assays were carried out and survival curves plotted as shown in FIG. 17.

A549 cells [1] = experiment: MTT cytotoxicity assay, A549 cells transfected with α-enolase siRNA
Procedure: Small interfering RNA transfected cells were seeded in triplicate into 96-well plates at 5×10^3 cells/well 48 hrs post-transfection. The cells were incubated for an additional 16-24 hrs before they were exposed to increasing concentrations of cytotoxic drugs. […] Appropriate dilutions were made in the respective media for each cell line. Following addition of drugs, incubation was continued for an additional 72 hrs. Twenty-five ml of MTT dye (5 mg/ml) were added into each well and the plate was further incubated at 37° C. for 4 hrs. The dye was solubilized with 10% Triton X-100, 0.01 N HCl and further incubated at 37° C. in the dark for 30 min. Cell viability was determined by measure of absorption at 570 nm in a Wallac multiwell plate reader (PerkinElmer, Inc., Boston, Mass.). The averages of triplicate wells were plotted using the Prism software (GraphPad Software, Inc., San Diego, Calif.).
To investigate if α-enolase is broadly involved in mediating drug resistance to microtubule targeting agents, non-small cell lung cancer cell lines A549 and H460, respectively, were transfected with α-enolase siRNA and enolase expression and viability were assessed.

MDA-435 cells = experiment: cells; type: cell-based, human; conditions: MDA-435 cells; for EC50: Homo sapiens, MDA435
Procedure: Similar tests utilizing α-enolase siRNA were performed on MDA-435 breast adenocarcinoma cells. Chemosensitivity to various drugs was determined for the MDA-435 cells as described above.

PC-3 cells = experiment: MTT cytotoxicity assay, PC-3 cells transfected with α-enolase siRNA; type: cell-based; conditions: for EC50: Homo sapiens
CaOV3 cells = experiment: MTT cytotoxicity assay, CaOV3 cells transfected with α-enolase RNAi; type: cell-based, human; conditions: for EC50: Homo sapiens, 72 hours post transfection
Source text: These observations were expanded by targeting α-enolase in the ovarian cancer cell line, CaOV3.

SKOV3 cells = experiment: Cytotoxicity in α-enolase siRNA transfected SKOV3 cells; conditions: data not shown
SW-480 cells = experiment: cells; type: cell-based, human; conditions: SW-480 cells; for EC50: Homo sapiens, SW480
Procedure: The colorectal adenocarcinoma cell line SW-480 was treated with α-enolase-directed siRNA using the procedures described above.

A549 cells [2] = experiment: Clonogenic assay, A549 cells; type: cell-based, human; conditions: A549 cells vs control vectors
α-enolase = experiment: Western blot of α-enolase protein expression after siRNA transfection; type: cell-based, human; conditions: MCF-7 cells
Procedure: Western blot analysis utilizing anti-α-enolase antibodies was performed on MOLT4 cell extracts fractionated on SDS-PAGE (FIG. 3). Cells extract were prepared according to the protocol detailed in Example 1. […] Resolved proteins were electrophoretically transferred onto nitrocellulose membranes (Hybond, Amercham Pharmacia Biotech) for 1 hour. […] After blocking the membranes with 5% non-fat milk in 1×PBS overnight at 4° C., all antibody-binding reactions were performed in 5% non-fat milk in 1×PBS for 2 hours at room temperature for primary antibodies and for 1 hour for secondary antibodies coupled to HRP. The signal was detected by the Supersignal west Pico chemiluminescent substrate (Pierce, Rockford, Ill., USA). Two polyclonal antibodies against α-enolase were used: a goat antibody against human α-enolase (Santa Cruz Biotechology, Inc., Santa Cruz, Calif.); rabbit polyclonal antibody against human α-enolase (NNE) (MorphoSys AG, Munich, Del.). Membranes were subsequently blotted with anti-GAPDH (Novus Biologicals, Inc., Littleton, Colo.) or anti-prohibitin mouse monoclonal antibody (Lab Vision Corp., Fremont, Calif.) as controls for protein loading. To establish the importance of α-enolase to the expression of the drug-resistant phenotype in cell lines, α-enolase expression was silenced using RNAi. Briefly, the following siRNA duplexes targeting the human α-enolase mRNA were designed and purchased either from Ambion (Austin, Tex.) or Invitrogen (Carlsbad, Calif.). […] [NT] ID NO: 2) targeting the mRNA sequence corresponding to nucleotides […] from the start of the transcript (Ref Seq ID number: NM-001428). […] In another tube, […] of Oligofectamine reagent (Invitrogen, Carlsbad, Calif.) is mixed with […] of Opti-MEM. The two solutions are combined and mixed gently by inversion and incubated for 20 min. at RT. […] The next day the transfected cells were trypsinized and seeded in 6 or 96-well plates and further incubated for the indicated amount of time (assay dependent) before further analysis.

[3] = control, read-out: Control (EC50)
[4] = α-enolase specific siRNA, read-out: α-Enolase (EC50)
[5] = Homo sapiens, MCF7, MCF-7 cells, control siRNA, 72 hrs drug, read-out: Control (EC50)
[6] = Homo sapiens, MCF7, MCF-7 cells, α-enolase specific siRNA, read-out: α-Enolase (EC50)
[7] = Eno-1 siRNA, read-out: Eno-1 (EC50)
[8] = Eno-1 stealth siRNA, read-out: Eno-1 ST (EC50)
[9] = control siRNA, read-out: Control (EC50)
[10] = mock transfection, read-out: Mock (EC50)
[11] = Homo sapiens, NCI-H460, control, read-out: Control (EC50)
[12] = Homo sapiens, NCI-H460, α-enolase specific siRNA, read-out: α-Enolase (EC50)
[13] = Homo sapiens, A549, read-out: Control (EC50)
[14] = Homo sapiens, A549, read-out: α-Enolase (EC50)
[15] = Caov-3, control, read-out: Control (EC50)
[16] = Caov-3, α-enolase specific RNAi, read-out: α-Enolase (EC50)

N.N.[Cl][Pt][Cl] [Cisplatinum]
EC50 (MCF-7 cells; MCF-7 cells, control siRNA, 72 hrs drug, read-out: Control (EC50)): 118000 nM
EC50 (MCF-7 cells; MCF-7 cells, α-enolase specific siRNA, read-out: α-Enolase (EC50)): 92000 nM
viability of α-enolase-silenced cells under drug treatment vs control cells (H460 cells): decreased the viability
EC50 (H460 cells; [3]): 44.4 nM
EC50 (H460 cells; [4]): 24 nM
EC50 (A549 cells [1]; read-out: Control (EC50), A549 cells, control siRNA): 327000 nM
EC50 (A549 cells [1]; read-out: α-Enolase (EC50), A549 cells, α-enolase specific siRNA): 218000 nM

CC(=O)O[C@@]12CO[C@@H]1C[C@H](O)[C@@]1(C)C(=O)[C@H](O)C3=C(C)[C@@H](OC(=O)[C@H](O)[C@@H](NC(=O)OC(C)(C)C)c4ccccc4)C[C@@](O)([C@@H](OC(=O)c4ccccc4)[C@H]21)C3(C)C [Docetaxel]
EC50 (MCF-7 cells; [5]): 73.5 nM
EC50 (MCF-7 cells; [6]): 36.5 nM
EC50 (MDA-435 cells; [7]): 0.182 nM
EC50 (MDA-435 cells; [8]): 0.124 nM
EC50 (MDA-435 cells; [9]): 0.645 nM
EC50 (MDA-435 cells; [10]): 0.226 nM
sensitivity of α-enolase-silenced cells (MDA-435 cells): Increases in sensitivity
viability of α-enolase-silenced cells under drug treatment vs control cells (H460 cells): decreased the viability
EC50 (H460 cells; [11]): 1.36 nM
EC50 (H460 cells; [12]): 0.663 nM
chemosensitivity of α-enolase-silenced cells (words) (A549 cells [1]; A549 cells): enhanced chemosensitivity; also recorded: significant shifts in their chemosensitivities
EC50 (A549 cells [1]; [13]): 7.01 nM
EC50 (A549 cells [1]; [14]): 0.351 nM
EC50 (PC-3 cells; [3]): 0.348 nM
EC50 (PC-3 cells; [4]): 0.0547 nM

COc1cccc2c1C(=O)c1c(O)c3c(c(O)c1C2=O)C[C@@](O)(C(=O)CO)C[C@@H]3O[C@H]1C[C@H](N)[C@H](O)[C@H](C)O1 [Doxorubicin]
EC50 (MCF-7 cells; [5]): 90600 nM
EC50 (MCF-7 cells; [6]): 62600 nM
viability of α-enolase-silenced cells under drug treatment vs control cells (H460 cells): greatest decreases in viability
EC50 (H460 cells; [11]): 119 nM
EC50 (H460 cells; [12]): 30 nM
EC50 (A549 cells [1]; [13]): 289 nM
EC50 (A549 cells [1]; [14]): 297 nM

COc1cc([C@@H]2c3cc4c(cc3[C@@H](O[C@@H]3O[C@@H]5CO[C@@H](C)O[C@H]5[C@H](O)[C@H]3O)[C@H]3COC(=O)[C@H]23)OCO4)cc(OC)c1O [Etoposide]
EC50 (MCF-7 cells; [5]): 16100 nM
EC50 (MCF-7 cells; [6]): 27000 nM
viability of α-enolase-silenced cells under drug treatment vs control cells (H460 cells): decreased the viability
EC50 (H460 cells; [11]): 5370 nM
EC50 (H460 cells; [12]): 1910 nM
chemosensitivity of α-enolase-silenced cells (words) (A549 cells [1]; A549 cells): increased sensitivity
EC50 (A549 cells [1]; [13]): 20500 nM
EC50 (A549 cells [1]; [14]): 10100 nM

N[C@@H](Cc1ccc(N(CCCl)CCCl)cc1)C(=O)O [Melphalan]
EC50 (MCF-7 cells; Homo sapiens, MCF7, 72 h, read-out: Control (EC50)): 14700 nM
EC50 (MCF-7 cells; Homo sapiens, MCF7, read-out: α-Enolase (EC50)): 11500 nM

O=C1c2c(O)ccc(O)c2C(=O)c2c(NCCNCCO)ccc(NCCNCCO)c21 [Mitoxantrone]
EC50 (MCF-7 cells; [5]): 8680 nM
EC50 (MCF-7 cells; [6]): 7820 nM
viability of α-enolase-silenced cells under drug treatment vs control cells (H460 cells): decreased the viability
EC50 (H460 cells; [11]): 224 nM
EC50 (H460 cells; [12]): 70.8 nM
chemosensitivity of α-enolase-silenced cells (words) (A549 cells [1]; A549 cells): increased sensitivity
EC50 (A549 cells [1]; [13]): 136 nM
EC50 (A549 cells [1]; [14]): 88.8 nM

CC[C@]1(O)C[C@@H]2CN(CCc3c([nH]c4ccccc34)[C@@](C(=O)OC)(c3cc4c(cc3OC)N(C)[C@H]3[C@@](O)(C(=O)OC)[C@H](OC(C)=O)[C@]5(CC)C=CCN6CC[C@]43[C@@H]65)C2)C1 [Vinblastin]
decrease of chemotherapeutic drug resistance by α-enolase-directed siRNA vs mock siRNA (CaOV3 cells): 8 fold
EC50 (CaOV3 cells; [15]): 0.022 nM
EC50 (CaOV3 cells; [16]): 0.00349 nM
EC50 (MDA-435 cells; [7]): 0.872 nM
EC50 (MDA-435 cells; [8]): 0.917 nM
EC50 (MDA-435 cells; [9]): 0.709 nM
EC50 (MDA-435 cells; [10]): 1.04 nM
viability of α-enolase-silenced cells under drug treatment vs control cells (H460 cells): decreased the viability
EC50 (H460 cells; [11]): 3.09 nM
EC50 (H460 cells; [12]): 1.54 nM
chemosensitivity of α-enolase-silenced cells (words) (A549 cells [1]; A549 cells): enhanced chemosensitivity
chemosensitivity of α-enolase-silenced cells (words) (A549 cells [1]; A549 cells, listed as vinblastine): significant shifts in their chemosensitivities
EC50 (A549 cells [1]; [13]): 2.39 nM
EC50 (A549 cells [1]; [14]): 0.076 nM
EC50 (PC-3 cells; [3]): 0.0529 nM
EC50 (PC-3 cells; [4]): 0.00553 nM
combination with enolase siRNA in cell killing (PC-3 cells; listed as vinblastine): synergistic; also recorded: augment PC-3 cell killing

CC[C@]1(O)C[C@H]2CN(CCc3c([nH]c4ccccc34)[C@@](C(=O)OC)(c3cc4c(cc3OC)N(C=O)[C@H]3[C@@](O)(C(=O)OC)[C@H](OC(C)=O)[C@]5(CC)C=CCN6CC[C@]43[C@@H]65)C2)C1 [Vincristine]
cytotoxic effect in α-enolase-depleted cells (SKOV3 cells): enhanced cytotoxic effect
decrease of chemotherapeutic drug resistance by α-enolase-directed siRNA vs mock siRNA (CaOV3 cells): 6 fold
EC50 (CaOV3 cells; [15]): 0.084 nM
EC50 (CaOV3 cells; [16]): 0.0108 nM
EC50 (SW-480 cells; [3]): 45.8 nM
EC50 (SW-480 cells; [4]): 0.221 nM
more sensitive, enolase-depleted vs mock transfected cells (SW-480 cells): approximately 210 times
chemosensitivity of α-enolase-depleted cells (words) (SW-480 cells; listed as vincristin): greater chemosensitivity
chemosensitivity of α-enolase-depleted cells (words) (SW-480 cells; listed as vincristine): greatly enhanced chemosensitivity
EC50 (MCF-7 cells; [5]): 163000 nM
IC50 (MCF-7 cells; Homo sapiens, MCF7, MCF-7 cells, from MTT experiments): 0.25 nM
EC50 (MCF-7 cells; [6]): 12600 nM
sensitivity of α-enolase silenced cells (MCF-7 cells; MCF-7 cells): substantial increase in their sensitivity
IC10 (MCF-7 cells; MCF-7 cells, from MTT experiments): 0.005 nM
EC50 lower in α-enolase-depleted cells vs control siRNA treated cells (MCF-7 cells; MCF-7 cells, on average): 12 fold
EC50 (MDA-435 cells; [7]): 0.375 nM
EC50 (MDA-435 cells; [8]): 0.324 nM
EC50 (MDA-435 cells; [9]): 0.246 nM
EC50 (MDA-435 cells; [10]): 0.667 nM
sensitivity of α-enolase siRNA cells in clonogenic assay (A549 cells [2]): more sensitive
viability of α-enolase-silenced cells under drug treatment vs control cells (H460 cells): decreased the viability
EC50 (H460 cells; [11]): 4.96 nM
EC50 (H460 cells; [12]): 2.03 nM
chemosensitivity of α-enolase-silenced cells (words) (A549 cells [1]; A549 cells, listed as vincristin): significant shifts in their chemosensitivities
chemosensitivity of α-enolase-silenced cells (words) (A549 cells [1]; A549 cells, listed as vincristine): enhanced chemosensitivity
EC50 (A549 cells [1]; [13]): 83.3 nM
EC50 (A549 cells [1]; [14]): 20 nM
EC50 (PC-3 cells; [3]): 3400 nM
EC50 (PC-3 cells; [4]): 1690 nM

VEGF-directed siRNA: chemically modified Stealth siRNA duplex targeting VEGF, SEQ ID NO: 8 and 9 (chain 1 ACAAAUGUGAAUGCAGACCAAAGAA; chain 2 UUCUUUGGUCUGCAUUCACAUUUGU; chemically modified Stealth duplex, pattern not given here)
decrease of α-enolase expression (α-enolase): ~100%
